Assays:
[1] = molecular target: wild type EGFR in A431 cells (Homo sapiens, UniProt P00533); assay: EGFR wild type cell phosphorylation assay (A431)
Experimental: Test 1: EGFR Wild Type Cell Phosphorylation Assay
The human epidermoid carcinom cell line A431 expressed wild type EGFR and was purchased from the cell bank of the Chinese Academy of Sciences. A431 was maintained in an EMEM culture media containing 10% fetal bovine serum. The cells were grown at 37° C. in a humidified incubator containing 5% CO2. Endogenous p-EGFR in the cell lysate was assayed according to Phospho-EGFR HTRF kit (Cisbio, No. #64HR1PEG). Cells were plated (50000 cells/well) in a volume of 100 μL of complete media in 96-well cell culture plates and cultured at 37° C. with 5% CO2 overnight. 4-fold serial dilutions was added to the cells, the maximum concentration of the reaction being 10 μM. The cells were incubated continuously for 2 hours, 100 ng/well of EGF was added, incubated at 37° C. for 10 minutes, then the culture solution was discarded, lysis buffer (25 μL/well) was added immediately, lyse the cells at room temperature for 10 minutes, then 12 μL/well of the cell lysates were added to a Greiner white small-volume 384-well plate, detection antibodies (Anti-phospho EGFR-d2 and Anti-EGFR-Tb) were added, and the cells were incubated at 25° C. for 60 minutes. The HTRF fluorescence value was measured with CLARIOstar (BMG LABTECH) after the incubation, and IC50 was determined using GraphPad Prism 5.0.

hERG potassium channels = molecular target: T1, hERG potassium channels (Homo sapiens, UniProt Q12809); assay: hERG potassium channel whole cell patch clamp; type: cell-based; settings: HEK293 cells stably expressing hERG, tail current, read-out: IC50 of inhibition on hERG potassium channels at cell level
T1 construct: expressed in transfected cells; host or cells: HEK293
Experimental: 3) Assay on the Effects of the Compounds on hERG Potassium Channels
HEK293 cells stably expressing an hERG channel were cultured in 35 mm culture dishes and placed in a 37° C./5% CO2 incubator for at least 24 hours before the experiment. The cell culture medium was DMEM containing 10% fetal bovine serum and 250 μg/mL G418.
The ingredients of the extracellular fluid used in the whole cell patch clamp experiment were (mM): NaCl, 137; KCl, 4; CaCl2, 1.8; MgCl2, 1; HEPES, 10; glucose 10; pH 7.4 (NaOH titration). All tested compounds and control compound solutions contained 0.3% DMSO. The intracellular fluid (mM) was: K Aspartate, 130; MgCl2, 5; EGTA 5; HEPES, 10; Tris-ATP 4; pH 7.2 (KOH titration).
One dish was taken out for each experiment, washed twice with the extracellular fluid, and placed on an inverted microscope stage. The whole cell patch clamp experiment was performed at room temperature with a tip resistance of 3 to 5 MΩ for a borosilicate glass microelectrode. After the whole cell recording mode, the membrane potential was clamped at −80 mV, gave a +50 mV depolarization voltage stimulation to the cells every 30 s and then repolarized to −50 mV for 3 s after 2 s to elicit hERG tail current. The cells were given a −50 mV repolarization voltage for 50 ms before the depolarization voltage stimulation, and the current recorded under this voltage was used as a baseline for calculating the hERG tail current. The hERG tail current was stably recorded for at least 3 minutes in the extracellular fluid before the addition of the compound. When the amplitude change of the hERG tail current was less than 5% after perfusion administration, it was considered that the drug action reached a steady state. Data was acquired and analyzed by a pCLAMP 10.1 software program. […] The inhibition rate of the tested compound to the hERG current was calculated according to the following equation: % inhibition rate={1−(remaining current amplitude)/(control current amplitude)}×100 […]

[2] = molecular target: EGFR (L858R) single mutant (Homo sapiens, UniProt P00533, L858R); assay: HTRF kinase activity assay, EGFR (L858R) single mutant
Experimental: (§1) The above kinases were purchased from Invitrogen Corporation Shanghai Representative Office.
(§2) The reaction concentration of the compounds was three times diluted from 1000 nM for 9 concentrations. The concentration of DMSO in the reaction system was 2%. The enzyme and the compound were pre-incubated for 15 minutes, and then ATP and substrate were added to initiate the reaction. All enzyme catalyzed reactions were carried out at 25° C. for 60 minutes. […] Measure the HTRF fluorescence value with CLARIOstar (BMG LABTECH) after the incubation, and IC50 was determined using GraphPad Prism 5.0.

[3] = molecular target: T2, Exon19 deletion EGFR in HCC827 cells (Homo sapiens, UniProt P00533, DEL746-750); assay: Exon19 deletion EGFR cell phosphorylation assay (HCC827); type: cell-based; settings: 2 h incubation, read-out: Cell level EGFR phosphorylation IC50, HCC827 (EGFR del19)
T2 construct: Assayed the endogenous p-EGFR of the cell lysate; host or cells: HCC827
Experimental: Test 2: Exon19 Deletion EGFR (Activated Single Mutant) Cell Phosphorylation Assay
The human non-small cell lung cancer cell line HCC827 (Exon19 deletion EGFR, activated single mutant) was purchased from the cell bank of the Chinese Academy of Sciences. HCC827 was maintained in an RPMI1640 culture media containing 10% fetal bovine serum. The cells were grown at 37° C. in a humidified incubator containing 5% CO2. Assayed the endogenous p-EGFR of the cell lysate according to the Phospho-EGFR HTRF kit (Cisbio, No. #64HR1PEG). 100 μL of cells were added to a 96-well plate (50000 cells/well), and cultured overnight at 37° C. in a cell incubator with 5% CO2. 4-fold serial dilutions was added to the cells, the maximum concentration of the reaction being 10 μM. The culture solution was discarded after 2 hours' continuous incubation, lysate (25 μL/well) was added immediately, lyse the cells at room temperature for 10 minutes, then 12 μL/well of cells were added to a Greiner white small-volume 384-well plate, detection antibodies (Anti-phospho EGFR-d2 and Anti-EGFR-Tb) were added, and the cells were incubated at 25° C. for 60 minutes. The HTRF fluorescence value was measured with CLARIOstar (BMG LABTECH) after the incubation, and IC50 was determined using GraphPad Prism 5.0.

EGFR wild type = molecular target: T3, EGFR wild type (Homo sapiens, UniProt P00533); assay: HTRF kinase activity assay, EGFR wild type; type: biochemical; settings: 10 μM ATP, read-out: In vitro enzymatic activity IC50, EGFR
T3 construct: purchased Invitrogen Corporation Shanghai Representative Office
T3 sequence (P00533 25-1210): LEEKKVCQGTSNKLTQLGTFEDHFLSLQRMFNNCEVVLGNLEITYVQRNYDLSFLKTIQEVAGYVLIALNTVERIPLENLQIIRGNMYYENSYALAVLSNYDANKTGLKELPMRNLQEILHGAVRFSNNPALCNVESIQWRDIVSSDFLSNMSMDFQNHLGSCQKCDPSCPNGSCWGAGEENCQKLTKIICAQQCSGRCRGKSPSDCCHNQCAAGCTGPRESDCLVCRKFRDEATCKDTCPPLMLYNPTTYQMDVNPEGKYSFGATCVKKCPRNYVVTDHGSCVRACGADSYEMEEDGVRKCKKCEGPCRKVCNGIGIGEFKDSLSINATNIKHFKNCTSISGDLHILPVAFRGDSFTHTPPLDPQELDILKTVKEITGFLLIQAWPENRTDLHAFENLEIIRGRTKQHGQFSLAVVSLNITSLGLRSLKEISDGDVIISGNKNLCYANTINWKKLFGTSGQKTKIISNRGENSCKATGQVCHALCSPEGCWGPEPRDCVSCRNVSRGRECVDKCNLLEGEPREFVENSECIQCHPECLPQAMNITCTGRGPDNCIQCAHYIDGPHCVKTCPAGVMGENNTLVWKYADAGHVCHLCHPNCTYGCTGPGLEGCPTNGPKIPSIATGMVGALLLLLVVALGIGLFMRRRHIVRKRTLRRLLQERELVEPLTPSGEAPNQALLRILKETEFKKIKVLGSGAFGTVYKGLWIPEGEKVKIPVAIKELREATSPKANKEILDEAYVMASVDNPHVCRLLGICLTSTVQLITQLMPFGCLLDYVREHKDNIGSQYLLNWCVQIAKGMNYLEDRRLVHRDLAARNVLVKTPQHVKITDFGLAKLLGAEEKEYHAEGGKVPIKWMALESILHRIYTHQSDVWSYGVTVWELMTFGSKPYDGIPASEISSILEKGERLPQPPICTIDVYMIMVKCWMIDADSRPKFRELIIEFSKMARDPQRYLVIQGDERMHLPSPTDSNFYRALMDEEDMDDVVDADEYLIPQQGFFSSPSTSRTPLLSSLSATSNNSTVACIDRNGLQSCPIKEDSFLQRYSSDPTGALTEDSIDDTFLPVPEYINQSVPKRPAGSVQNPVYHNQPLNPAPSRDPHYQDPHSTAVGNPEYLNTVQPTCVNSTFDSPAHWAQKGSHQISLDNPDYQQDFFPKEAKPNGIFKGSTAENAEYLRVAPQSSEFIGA
Experimental: as §1, §2

T2 sequence (P00533 with tags, fused parts or gaps DEL746-750): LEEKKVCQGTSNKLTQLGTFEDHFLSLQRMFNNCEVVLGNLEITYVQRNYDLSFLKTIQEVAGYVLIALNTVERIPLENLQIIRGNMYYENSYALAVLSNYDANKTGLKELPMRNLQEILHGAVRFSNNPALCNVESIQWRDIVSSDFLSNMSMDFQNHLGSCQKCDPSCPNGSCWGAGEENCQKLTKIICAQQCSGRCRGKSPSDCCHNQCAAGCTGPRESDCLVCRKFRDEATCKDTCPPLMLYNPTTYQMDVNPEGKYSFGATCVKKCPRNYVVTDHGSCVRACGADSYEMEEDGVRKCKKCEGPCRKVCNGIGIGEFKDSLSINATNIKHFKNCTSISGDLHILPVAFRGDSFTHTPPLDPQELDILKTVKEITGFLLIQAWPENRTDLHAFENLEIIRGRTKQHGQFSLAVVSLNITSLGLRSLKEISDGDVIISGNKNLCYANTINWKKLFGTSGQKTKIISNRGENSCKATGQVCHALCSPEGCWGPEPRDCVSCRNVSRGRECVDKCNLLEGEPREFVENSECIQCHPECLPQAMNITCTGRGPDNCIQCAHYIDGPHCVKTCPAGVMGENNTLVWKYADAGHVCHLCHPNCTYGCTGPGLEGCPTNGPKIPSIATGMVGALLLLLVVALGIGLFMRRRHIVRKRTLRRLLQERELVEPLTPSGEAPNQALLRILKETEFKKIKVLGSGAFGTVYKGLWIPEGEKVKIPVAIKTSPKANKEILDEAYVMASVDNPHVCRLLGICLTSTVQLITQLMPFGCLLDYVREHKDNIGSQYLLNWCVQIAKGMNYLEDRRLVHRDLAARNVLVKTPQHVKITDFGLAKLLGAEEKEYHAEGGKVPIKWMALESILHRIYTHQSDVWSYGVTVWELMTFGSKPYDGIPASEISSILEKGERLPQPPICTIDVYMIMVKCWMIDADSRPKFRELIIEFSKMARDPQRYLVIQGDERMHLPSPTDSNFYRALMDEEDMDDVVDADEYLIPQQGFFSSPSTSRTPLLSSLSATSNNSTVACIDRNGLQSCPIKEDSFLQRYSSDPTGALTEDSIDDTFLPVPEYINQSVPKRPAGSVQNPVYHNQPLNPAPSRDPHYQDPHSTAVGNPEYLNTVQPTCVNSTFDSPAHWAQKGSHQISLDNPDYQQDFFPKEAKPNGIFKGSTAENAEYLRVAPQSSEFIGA
T1 sequence (Q12809 whole entry): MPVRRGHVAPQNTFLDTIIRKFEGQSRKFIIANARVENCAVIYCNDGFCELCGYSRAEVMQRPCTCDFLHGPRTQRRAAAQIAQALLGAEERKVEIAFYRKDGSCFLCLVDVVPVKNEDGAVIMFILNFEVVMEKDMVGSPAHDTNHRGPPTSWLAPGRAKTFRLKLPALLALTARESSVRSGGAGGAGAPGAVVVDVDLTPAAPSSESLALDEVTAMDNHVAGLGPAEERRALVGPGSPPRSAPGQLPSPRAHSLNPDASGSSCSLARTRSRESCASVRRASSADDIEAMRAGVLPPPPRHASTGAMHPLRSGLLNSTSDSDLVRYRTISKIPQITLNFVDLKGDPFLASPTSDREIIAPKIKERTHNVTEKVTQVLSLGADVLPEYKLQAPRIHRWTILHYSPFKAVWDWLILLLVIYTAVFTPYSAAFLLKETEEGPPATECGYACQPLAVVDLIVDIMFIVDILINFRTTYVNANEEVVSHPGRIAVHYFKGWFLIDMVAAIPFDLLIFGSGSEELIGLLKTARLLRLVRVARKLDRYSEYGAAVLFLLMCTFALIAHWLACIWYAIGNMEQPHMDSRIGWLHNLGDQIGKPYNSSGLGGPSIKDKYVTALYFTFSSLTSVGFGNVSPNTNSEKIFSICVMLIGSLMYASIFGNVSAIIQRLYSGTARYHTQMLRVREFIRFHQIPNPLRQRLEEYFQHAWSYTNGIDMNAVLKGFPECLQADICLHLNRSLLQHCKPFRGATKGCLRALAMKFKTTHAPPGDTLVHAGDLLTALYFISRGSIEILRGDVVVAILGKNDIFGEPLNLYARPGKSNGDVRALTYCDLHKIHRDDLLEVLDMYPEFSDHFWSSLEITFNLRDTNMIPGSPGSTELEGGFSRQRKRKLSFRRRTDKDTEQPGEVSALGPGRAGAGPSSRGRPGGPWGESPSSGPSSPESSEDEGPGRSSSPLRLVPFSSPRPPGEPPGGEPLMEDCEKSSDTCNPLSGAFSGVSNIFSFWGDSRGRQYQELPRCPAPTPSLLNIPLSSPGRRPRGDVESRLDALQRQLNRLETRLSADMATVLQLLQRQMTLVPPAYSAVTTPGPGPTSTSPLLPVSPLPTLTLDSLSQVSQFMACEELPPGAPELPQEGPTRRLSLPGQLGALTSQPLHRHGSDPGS
Sequence of wild type EGFR in A431 cells (P00533 25-1210): as the sequence (P00533 25-1210) above

| SMILES | IC50 [1] | IC50 (hERG potassium channels) | IC50 [2] | IC50 [3] | IC50 (EGFR wild type) |
| --- | --- | --- | --- | --- | --- |
| [2H]C([2H])([2H])N(C)CCN(C)c1cc(OC)c(Nc2nccc(-c3cn4c5c(cccc35)CCC4)n2)cc1NC(=O)C=C [Compound 11] | 0.73 µM | 1.85 µM | 0.0115 µM | 0.101 µM | 0.038 µM |
| [2H]C([2H])([2H])N(CCN(C)c1cc(OC)c(Nc2nccc(-c3cn4c5c(cccc35)CCC4)n2)cc1NC(=O)C=C)C([2H])([2H])[2H] [Compound 16] | 0.732 µM | 2.67 µM | 0.0116 µM | 0.103 µM | 0.027 µM |
| [2H]C([2H])([2H])N(CCN(C)C)c1cc(OC)c(Nc2nccc(-c3cn4c5c(cccc35)CCC4)n2)cc1NC(=O)C=C [Compound 24] | 0.52 µM | 1.97 µM | 0.00899 µM | 0.0781 µM | 0.0157 µM |
| [2H]C([2H])([2H])NCCN(C)c1cc(OC)c(Nc2nccc(-c3cn4c5c(cccc35)CCC4)n2)cc1NC(=O)C=C [Compound 34] |  |  | 0.0141 µM |  | 0.0354 µM |

Reference: patent publication US10654851B2, “Deuterated 3-(4,5-substituted aminopyrimidine)phenyl derivatives and use thereof” (NANJING CHUANGTE PHARMACEUTICAL TECHNOLOGY CO., LTD, priority 2016, dated 2020)
